How the values were obtained:
[1] = system: C57/BL6 mice; experiment: Total numbers of splenocytes and lymph node cells; type: in vivo, mouse; conditions: mice injected with bavachin together with OVA vs OVA alone; day 28; FIG. 5
Protocol: (§1) C57/BL6 mice were immunized with a mixture of OVA (10 μg) and bavachin (10 μg) or a mixture of OVA (10 μg) and bavachin (100 μg) by subcutaneous injection once every 1, 3, and 4 weeks. In this regard, those injected with OVA (10 μg) alone was used as a control.
(§2) Briefly, at 28 days after the first immunization, lymph nodes and spleens were removed from 5 mice per the treated mouse group (0.5% CMC (CON), OVA, Bavachin […], OVA+Bavachin), and ground to isolate cells from the tissue capsule. The spleens were subjected to hemolysis by treatment with an RBC lysis buffer, and splenocytes were isolated.
The total numbers of the splenocytes and lymph node cells obtained in Example 5 were counted (FIG. 5).

[2] = system: C57/BL6 mice; experiment: Percentages of effector T cells in lymph node cells by FACS analysis; type: in vivo, mouse; conditions: mice injected with bavachin together with OVA vs OVA alone; FIG. 7
Protocol: as §1, §2
Further, percentages of CD44^+CD62L^−CD4 cells and CD44^+CD62L^−CD8 cells, which are effector T cells, were compared by performing FAGS analysis of the lymph node cells (FIG. 7).

[3] = system: C57/BL6 mice; experiment: Serum immunoglobulin isotyping assay (CBA isotyping kit); type: in vivo, mouse; conditions: mice injected with bavachin together with OVA vs OVA alone; FIG. 2
Protocol: as §1
Antibody subclasses in the mouse sera collected in Example 3 were stained with CBA (Cytometric Bead Array) isotyping kit and analyzed by FAGS (FIG. 2).

[4] = system: C57/BL6 mice; experiment: Percentages of CD4 and CD8 cells in splenocytes by FACS analysis; type: in vivo, mouse; conditions: mice injected with bavachin together with OVA vs OVA alone; FIG. 6
Protocol: as §1, §2
Therefore, percentages of CD4 cells and CD8 cells were compared by performing FAGS analysis of the splenocytes (FIG. 6).

[5] = system: C57/BL6 mice; experiment: OVA-specific IgG antibody titer in mouse sera by ELISA; type: in vivo; conditions: mice injected s.c. with bavachin (10 or 100 μg) together with OVA (10 μg) vs OVA alone; sera at 28 and 42 days; FIG. 1
Protocol: as §1
At 28 days and 42 days after the first immunization in Example 2, mouse sera were collected, and the titers of antigen-specific IgG antibodies in the sera were measured by way of ELISA (FIG. 1). At this time, in the ELISA method, an OVA-coated plate was blocked, and then sera of a control group and an experimental group were incubated at various serial dilution rates. Thereafter, horseradish peroxidase-conjugated mouse-IgG and IgG1 antibodies were added, and a substrate was added and allowed to react, followed by measurement with an ELISA reader.

[6] = system: splenocytes and lymph node cells; experiment: Cytokines secreted from splenocytes and lymph node cells by CBA; type: cell-based, mouse; conditions: cells from mice injected with bavachin together with OVA vs OVA alone; day 28; treated with OVA 48 hours; FIG. 4
Protocol: as §1, §2
(§3) The isolated splenocytes and lymph node cells were dispensed in a 96-well-plate at a density of 1×10^6 cells/well, followed by treated with OVA for 48 hours. Thereafter, cell proliferation was measured by MTS (FIG. 3), and cytokines (IFN-γ, IL-2, IL-4, IL-6, IL-10, and TNF) secreted from the cells were measured by CBA (FIG. 4).

[7] = system: splenocytes and lymph node cells; experiment: Antigen-specific cell proliferation of splenocytes and lymph node cells by MTS; type: cell-based, mouse; conditions: cells from mice injected with bavachin together with OVA vs OVA alone; day 28; treated with OVA 48 hours; FIG. 3
Protocol: as §1, §2, §3

CC(C)=CCc1cc2c(cc1O)O[C@H](c1ccc(O)cc1)CC2=O [bavachin] was tested. Which “number of lymph node cells” value [1] did it give?
Its value is “relatively high levels”.

And the number of splenocytes [1]?
The number of splenocytes was “no significant difference”.

What about the “percentages of effector T cells (CD44+CD62L−CD4 and CD44+CD62L−CD8) in lymph node cells” value [2] of the same compound?
Its value is “relatively high levels”.

What about the “IgA immunoglobulin level in sera” value [3] of the same compound?
The value was “relatively high levels”.

And the “IgG1 immunoglobulin level in sera” value [3]?
The value was “relatively high levels”.

And the “percentage of CD4 cells in splenocytes” value [4]?
The value was “relatively high levels”.

What about the “percentage of CD8 cells in splenocytes” value [4] of the same compound?
Its value is “relatively high levels”.

What about the OVA-specific antibody titers [5] of the same compound?
Its OVA-specific antibody titers is “significantly increased”.

And the “levels of cytokines (IFN-γ, IL-2, IL-4, IL-6, IL-10, and TNF) secreted from lymph node cells” value [6]?
Its value is “relatively high levels”.

And the “levels of cytokines (IFN-γ, IL-2, IL-4, IL-6, IL-10, and TNF) secreted from splenocytes” value [6]?
The value was “relatively high levels”.

And the “cell proliferation ability of lymph node cells” value [7]?
The value was “relatively excellent cell proliferation ability”.

And the “cell proliferation ability of splenocytes” value [7]?
The value was “relatively excellent cell proliferation ability”.

Reference: patent US20220409723A1, “NOVEL VACCINE ADJUVANT COMPOSITION INCLUDING BAVACHIN” (KOREA INSTITUTE OF ORIENTAL MEDICINE, priority 2019, published 2022)
